According to the supplement of paper PMC10307832:

What was measured:
Assay in all cases: relative viability (nuclei count vs DMSO), 5 days (fraction); higher = more cells survive
[1] = compound: COc1cc(-c2nn([C@H]3CC[C@H](N4CCN(C(C)=O)CC4)CC3)c3ncnc(N)c23)ccc1NC(=O)c1cc2ccccc2n1C + C[C@]1(O)C[C@@H](c2nc(-c3ccc4ccc(-c5ccccc5)nc4c3)c3c(N)nccn32)C1 [Linsitinib] (partner 1 µM)
Summary of the method: (§1)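 Cells from lung cancer lines were seeded into 1536-well plates and, one day later, dosed by pin tool. Treatments were either a single drug or a fixed dose of an anchor drug with five library-drug doses (not always all listed) in √10 steps. After 5 days, nuclei were stained in a one-step fixation (final 0.05% Triton X-100, 1% formaldehyde, 1 ug/ml Hoechst) and counted on 4× images, and relative viability is the treated-to-vehicle nuclei ratio, as the median of duplicate plates.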

Midostaurin + Vorinostat = compound: CO[C@@H]1[C@H](N(C)C(=O)c2ccccc2)C[C@H]2O[C@]1(C)n1c3ccccc3c3c4c(c5c6ccccc6n2c5c31)C(=O)NC4 [Midostaurin] + O=C(CCCCCCC(=O)Nc1ccccc1)NO [Vorinostat] (partner 1 µM)
Summary of the method: as §1

[2] = compound: COc1cc(-c2nn([C@H]3CC[C@H](N4CCN(C(C)=O)CC4)CC3)c3ncnc(N)c23)ccc1NC(=O)c1cc2ccccc2n1C + CS(=O)(=O)N1CCN(Cc2cc3nc(-c4cccc5[nH]ncc45)nc(N4CCOCC4)c3s2)CC1 [Pictilisib] (partner 1 µM)
Summary of the method: as §1

Midostaurin + OSI-027 = compound: CO[C@@H]1[C@H](N(C)C(=O)c2ccccc2)C[C@H]2O[C@]1(C)n1c3ccccc3c3c4c(c5c6ccccc6n2c5c31)C(=O)NC4 [Midostaurin] + COc1cccc2cc(-c3nc([C@H]4CC[C@H](C(=O)O)CC4)n4ncnc(N)c34)[nH]c12 [OSI-027] (partner 0.5 µM)
Summary of the method: as §1

[3] = compound: COc1cc(-c2nn([C@H]3CC[C@H](N4CCN(C(C)=O)CC4)CC3)c3ncnc(N)c23)ccc1NC(=O)c1cc2ccccc2n1C + CC1(C)CCC(c2ccc(Cl)cc2)=C(CN2CCN(c3ccc(C(=O)NS(=O)(=O)c4ccc(N[C@H](CCN5CCOCC5)CSc5ccccc5)c(S(=O)(=O)C(F)(F)F)c4)cc3)CC2)C1 [Navitoclax] (partner 0.5 µM)
Summary of the method: as §1

LC-2-ad
relative viability ([1]; first compound 0.0128 µM): 0.659 | relative viability ([1]; first compound 0.04048 µM): 0.846 | relative viability ([1]; first compound 0.128 µM): 0.835 | relative viability ([1]; first compound 1.28 µM): 0.681 | relative viability (Midostaurin + Vorinostat; first compound 0.01 µM): 0.692 | relative viability (Midostaurin + Vorinostat; first compound 0.03162 µM): 0.644 | relative viability (Midostaurin + Vorinostat; first compound 0.1 µM): 0.775 | relative viability (Midostaurin + Vorinostat; first compound 0.3162 µM): 0.459 | relative viability ([2]; first compound 0.0128 µM): 0.606 | relative viability ([2]; first compound 0.04048 µM): 0.009 | relative viability ([2]; first compound 0.128 µM): 0.455 | relative viability ([2]; first compound 1.28 µM): 0.311 | relative viability (Midostaurin + OSI-027; first compound 0.01 µM): 0.792 | relative viability (Midostaurin + OSI-027; first compound 0.03162 µM): 0.791 | relative viability (Midostaurin + OSI-027; first compound 0.1 µM): 0.898 | relative viability (Midostaurin + OSI-027; first compound 0.3162 µM): 0.847 | relative viability ([3]; first compound 0.0128 µM): 0.509 | relative viability ([3]; first compound 0.04048 µM): 0.429 | relative viability ([3]; first compound 0.128 µM): 0.473 | relative viability ([3]; first compound 1.28 µM): 0.389

LCLC-97TM1
relative viability ([1]; first compound 0.0128 µM): 0.183 | relative viability ([1]; first compound 0.04048 µM): 0.205 | relative viability ([1]; first compound 0.128 µM): 0.173 | relative viability ([1]; first compound 1.28 µM): 0.238 | relative viability (Midostaurin + Vorinostat; first compound 0.01 µM): 0.668 | relative viability (Midostaurin + Vorinostat; first compound 0.03162 µM): 0.534 | relative viability (Midostaurin + Vorinostat; first compound 0.1 µM): 0.635 | relative viability (Midostaurin + Vorinostat; first compound 0.3162 µM): 0.756 | relative viability ([2]; first compound 0.0128 µM): 0.229 | relative viability ([2]; first compound 0.04048 µM): 0.107 | relative viability ([2]; first compound 0.128 µM): 0.227 | relative viability ([2]; first compound 1.28 µM): 0.281 | relative viability (Midostaurin + OSI-027; first compound 0.01 µM): 0.439 | relative viability (Midostaurin + OSI-027; first compound 0.03162 µM): 0.404 | relative viability (Midostaurin + OSI-027; first compound 0.1 µM): 0.434 | relative viability (Midostaurin + OSI-027; first compound 0.3162 µM): 0.557 | relative viability ([3]; first compound 0.0128 µM): 0.464 | relative viability ([3]; first compound 0.04048 µM): 0.388 | relative viability ([3]; first compound 0.128 µM): 0.385 | relative viability ([3]; first compound 1.28 µM): 0.389

LK-2
relative viability ([1]; first compound 0.0128 µM): 0.554 | relative viability ([1]; first compound 0.04048 µM): 0.522 | relative viability ([1]; first compound 0.128 µM): 0.461 | relative viability ([1]; first compound 1.28 µM): 0.231 | relative viability (Midostaurin + Vorinostat; first compound 0.01 µM): 0.252 | relative viability (Midostaurin + Vorinostat; first compound 0.03162 µM): 0.258 | relative viability (Midostaurin + Vorinostat; first compound 0.1 µM): 0.328 | relative viability (Midostaurin + Vorinostat; first compound 0.3162 µM): 0.277 | relative viability ([2]; first compound 0.0128 µM): 0.557 | relative viability ([2]; first compound 0.04048 µM): 0.543 | relative viability ([2]; first compound 0.128 µM): 0.55 | relative viability ([2]; first compound 1.28 µM): 0.375 | relative viability (Midostaurin + OSI-027; first compound 0.01 µM): 0.232 | relative viability (Midostaurin + OSI-027; first compound 0.03162 µM): 0.232 | relative viability (Midostaurin + OSI-027; first compound 0.1 µM): 0.248 | relative viability (Midostaurin + OSI-027; first compound 0.3162 µM): 0.197 | relative viability ([3]; first compound 0.0128 µM): 1.04 | relative viability ([3]; first compound 0.04048 µM): 0.861 | relative viability ([3]; first compound 0.128 µM): 0.621 | relative viability ([3]; first compound 1.28 µM): 0.685

LOU-NH91
relative viability ([1]; first compound 0.0128 µM): 0.889 | relative viability ([1]; first compound 0.04048 µM): 1.02 | relative viability ([1]; first compound 0.128 µM): 1.02 | relative viability ([1]; first compound 1.28 µM): 0.833 | relative viability (Midostaurin + Vorinostat; first compound 0.01 µM): 0.933 | relative viability (Midostaurin + Vorinostat; first compound 0.03162 µM): 0.882 | relative viability (Midostaurin + Vorinostat; first compound 0.1 µM): 0.947 | relative viability (Midostaurin + Vorinostat; first compound 0.3162 µM): 0.983 | relative viability ([2]; first compound 0.0128 µM): 0.517 | relative viability ([2]; first compound 0.04048 µM): 0.555 | relative viability ([2]; first compound 0.128 µM): 0.511 | relative viability ([2]; first compound 1.28 µM): 0.509 | relative viability (Midostaurin + OSI-027; first compound 0.01 µM): 0.74 | relative viability (Midostaurin + OSI-027; first compound 0.03162 µM): 0.67 | relative viability (Midostaurin + OSI-027; first compound 0.1 µM): 0.747 | relative viability (Midostaurin + OSI-027; first compound 0.3162 µM): 0.802 | relative viability ([3]; first compound 0.0128 µM): 0.658 | relative viability ([3]; first compound 0.04048 µM): 0.661 | relative viability ([3]; first compound 0.128 µM): 0.768 | relative viability ([3]; first compound 1.28 µM): 0.638

LU99A
relative viability ([1]; first compound 0.0128 µM): 0.555 | relative viability ([1]; first compound 0.04048 µM): 0.563 | relative viability ([1]; first compound 0.128 µM): 0.543 | relative viability ([1]; first compound 1.28 µM): 0.524 | relative viability (Midostaurin + Vorinostat; first compound 0.01 µM): 0.672 | relative viability (Midostaurin + Vorinostat; first compound 0.03162 µM): 0.433 | relative viability (Midostaurin + Vorinostat; first compound 0.1 µM): 0.454 | relative viability (Midostaurin + Vorinostat; first compound 0.3162 µM): 0.479 | relative viability ([2]; first compound 0.0128 µM): 0.357 | relative viability ([2]; first compound 0.04048 µM): 0.385 | relative viability ([2]; first compound 0.128 µM): 0.391 | relative viability ([2]; first compound 1.28 µM): 0.326 | relative viability (Midostaurin + OSI-027; first compound 0.01 µM): 0.279 | relative viability (Midostaurin + OSI-027; first compound 0.03162 µM): 0.309 | relative viability (Midostaurin + OSI-027; first compound 0.1 µM): 0.258 | relative viability (Midostaurin + OSI-027; first compound 0.3162 µM): 0.277 | relative viability ([3]; first compound 0.0128 µM): 0.854 | relative viability ([3]; first compound 0.04048 µM): 0.842 | relative viability ([3]; first compound 0.128 µM): 0.773 | relative viability ([3]; first compound 1.28 µM): 0.815

LXF-289
relative viability ([1]; first compound 0.0128 µM): 1.02 | relative viability ([1]; first compound 0.04048 µM): 0.927 | relative viability ([1]; first compound 0.128 µM): 0.939 | relative viability ([1]; first compound 1.28 µM): 1.08 | relative viability (Midostaurin + Vorinostat; first compound 0.01 µM): 0.772 | relative viability (Midostaurin + Vorinostat; first compound 0.03162 µM): 0.734 | relative viability (Midostaurin + Vorinostat; first compound 0.1 µM): 0.756 | relative viability (Midostaurin + Vorinostat; first compound 0.3162 µM): 0.689 | relative viability ([2]; first compound 0.0128 µM): 0.827 | relative viability ([2]; first compound 0.04048 µM): 0.586 | relative viability ([2]; first compound 0.128 µM): 0.775 | relative viability ([2]; first compound 1.28 µM): 0.509 | relative viability (Midostaurin + OSI-027; first compound 0.01 µM): 0.819 | relative viability (Midostaurin + OSI-027; first compound 0.03162 µM): 0.864 | relative viability (Midostaurin + OSI-027; first compound 0.1 µM): 0.842 | relative viability (Midostaurin + OSI-027; first compound 0.3162 µM): 0.743 | relative viability ([3]; first compound 0.0128 µM): 1.01 | relative viability ([3]; first compound 0.04048 µM): 0.886 | relative viability ([3]; first compound 0.128 µM): 0.967 | relative viability ([3]; first compound 1.28 µM): 0.959

NCI-H23
relative viability ([1]; first compound 0.0128 µM): 0.613 | relative viability ([1]; first compound 0.04048 µM): 0.417 | relative viability ([1]; first compound 0.128 µM): 0.612 | relative viability ([1]; first compound 1.28 µM): 0.49 | relative viability (Midostaurin + Vorinostat; first compound 0.01 µM): 0.514 | relative viability (Midostaurin + Vorinostat; first compound 0.03162 µM): 0.68 | relative viability (Midostaurin + Vorinostat; first compound 0.1 µM): 0.54 | relative viability (Midostaurin + Vorinostat; first compound 0.3162 µM): 0.243 | relative viability ([2]; first compound 0.0128 µM): 0.36 | relative viability ([2]; first compound 0.04048 µM): 0.298 | relative viability ([2]; first compound 0.128 µM): 0.403 | relative viability ([2]; first compound 1.28 µM): 0.457 | relative viability (Midostaurin + OSI-027; first compound 0.01 µM): 0.562 | relative viability (Midostaurin + OSI-027; first compound 0.03162 µM): 0.592 | relative viability (Midostaurin + OSI-027; first compound 0.1 µM): 0.524 | relative viability (Midostaurin + OSI-027; first compound 0.3162 µM): 0.513 | relative viability ([3]; first compound 0.0128 µM): 0.825 | relative viability ([3]; first compound 0.04048 µM): 0.549 | relative viability ([3]; first compound 0.128 µM): 0.716 | relative viability ([3]; first compound 1.28 µM): 0.77
